The text below walks through data of patent US6943186B2, “Methods of treating sepsis” (Yung Shin Pharmaceutical Ind. Co., Ltd., priority 2002, dated 2005).

Assay [1] deals with rat aortic smooth muscle cells. In words: Cytotoxicity (MTT) assay and TUNEL labeling, SNP-induced apoptosis in RASMCs. It is filed as cell-based. Conditions: for Cell survival (%) / effect on SNP-induced apoptosis / effect on Compound 3-induced cell proliferation / effect on Compound 3-mediated anti-apoptotic action: RASMCs; for effect on SNP-induced apoptosis: SNP 1 mmol/L, Compound 3 30 μmol/L; for effect on Compound 3-mediated anti-apoptotic action: inhibitor added to Compound 3 + SNP. The method, then:
(§1) Cell Culture Rat aortic smooth muscle cells (RASMCs) were prepared from Sprague-Dawley rats and cultured in Dulbecco's modified Eagle's medium (DMEM) supplemented with 10% FBS, 100 units/mL penicillin and 100 μg/mL streptomycin (Gibco, Grand Island, N.Y.) as previously described (Yang et al. (2001) Br J Pharmacol. 132: 1531-1541). Cells within six generations were used in the present study. Cells were identified being the smooth muscle cells by immunostaining with monoclonal antibody specific for smooth muscle α-actin.
Cytotoxicity Assay The cytotoxicity assay was carried out using the MTT assay method. MTT (3-(4,5-dimethylthiazol-2-yl)-2,5-diphenyltetrazolium bromide, Sigma Chemical, St. Louis, Mo.) was dissolved in phosphate-buffered saline (PBS) at a concentration of 5 mg/mL and filtered (Millipore, Bedford, Mass.). From this stock solution, 10 μL/100 μL of medium was added to each well of a plate, and the plate was gently shaken and incubated at 37° C. for 2 hours. […] After the loading of MTT, the medium was replaced with 100 μL dimethylsulphoxide (DMSO). The extent of reduction of MTT to formazan within cells was quantified by the measurement of OD550 with an enzyme-linked immunosorbent assay (ELISA) reader.
In Situ Labeling of Apoptotic Cells In situ detection of apoptotic cells was carried out by using a terminal deoxynucleotidyl transferase (TdT) dUTP nick-end labeling (TUNEL) method with an apoptotic detection kit (Promega, Madison, Wis., USA) as described previously (Guh et al. (1998) Mol Pharmacol. 53: 467-474). The TUNEL method identifies apoptotic cells in situ by using TdT to transfer biotin-dUTP to the free 3′-OH of cleaved DNA. The biotin-labeled cleavage sites then were visualized by reaction with fluorescein conjugated avidin (avidin-fluorescein isothiocyanate). Photomicrographs were obtained with a fluorescence microscope (Nikon).

For assay [2], the system named is intracellular cGMP levels. In words: Assay of cGMP contents. The class given is cell-based, rat. The method, then: as §1
Assay of cGMP Contents At confluence, monolayer cells were incubated with indicated agents for 10 minutes. Then cells were washed twice with ice-cold PBS and lysed with 0.5 mL NaOH (0.1 mol/L). 0.5 mL HCl (0.1 mol/L) was then added to neutralize the assay solution. After the centrifugation (3,000×g for 3 minutes), the supernatant was used for the detection of cGMP content by using a cGMP ELISA kit.

The test system of a further assay is caspase-3. In words: Determination of caspase-3 activity in RASMCs. The class given is cell-based, rat. On the procedure:
Determination of Caspase-3 Activity
The Caspase-3 activity was assayed with the Caspase-3 colorimetric assay kit (R&D Systems, Inc., Minneapolis, Minn.). After the treatment of cells with indicated agents for ten hours, cells were washed twice with ice-cold PBS, trypsinized, and centrifuged (800×g for 5 minutes), and the cell pellet was re-suspended in pre-cooled lysis buffer obtained from the Caspase-3 colorimetric assay kit. After 10 minutes of incubation on ice, cell homogenates were centrifuged at 10,000×g for 1 minute and supernatants were removed for the determination of caspase-3 activity. Proteolytic reactions were performed in a total volume of 100 μL reaction buffer containing 50 μL of cytosolic extracts and 5 μL DEVD-pNA obtained from the kit. The reaction mixture was incubated at 37° C. for one to two hours and the formation of p-nitroaniline was then measured at 405 nm by an ELISA reader.

For a further assay, the system named is phosphorylated Akt. In words: Western blot of phosphorylated Akt. The class given is cell-based, rat. The method, then: (§2) Western Blot Analysis After the exposure of cells to the indicated agents for four (for Bcl-2) or six (for cytochrome c) hours, cells were washed twice with ice-cold PBS and reaction was terminated by the addition of 100 μL ice-cold lysis buffer (10 mmol/L Tris-HCl, pH 7.4, 150 mmol/L NaCl, 1 mmol/L EGTA, 0.5 mmol/L phenylmethylsulfonyl fluoride (PMSF), 10 μg/mL aprotinin, 10 μg/mL leupeptin, and 1% Triton X-100). For the detection of phosphorylated Akt, 1 mmol/L Na3VO4, 1 mmol/L NaF, 50 mmol/L tetrasodium pyrophosphate, 10 nmol/L okadaic acid, 0.25% sodium deoxycholate were included in the lysis buffer. Protein content was determined by the Bio-Rad protein assay (Bio-Rad Laboratories, CA, USA). For Western blot analysis, cell lysates (25 μg/lane) were electrophoresized on 10-15% SDS-polyacrylamide gels, and transferred to a nitrocellulose membrane. The membranes were probed with anti-Bcl-2 or anti-α-tubulin monoclonal antibody, or anti-phosphorylated Akt polyclonal antibody. The transferred membranes were developed with a secondary anti-mouse or anti-rabbit antibody as we previously described (Guh et al. (1998) Eur. J. Pharmacol. 359: 281-284). Detection of signal was performed with an enhanced chemiluminescence detection kit (ECL; Amersham International, Little Chalfont, U.K.).
In general terms: Immunoblotting shows a protein as a band on a membrane.

Another assay concerns Bcl-2. The assay is described as follows: Western blot of Bcl-2 levels. The class given is cell-based, rat. On the procedure:
as §2

In another assay the test system is cytochrome c. The assay is described as follows: Detection of cytochrome c release. It is filed as cell-based, rat. The method, then: Detection of Cytochrome c Release Reaction Cells were trypsinized and centrifuged at 800×g for 10 minutes. Then, the cell pellet was re-suspended in 50 μL of extraction buffer containing 20 mmol/L HEPES, pH 7.5, 10 mmol/L KCl, 1.5 mmol/L MgCl2, 1 mmol/L EDTA, 1 mmol/L EGTA, 1 mmol/L dithithretol, 1 mmol/L PMSF) and incubated for 3 minutes on ice. Cells were managed with 30 strokes and centrifuged at 15,000×g for 15 minutes at 4° C. Aliquots of 20 μg protein were resolved on 15% SDS-polyacrylamide gel and then blotted to PVDF membranes. Membranes were incubated with anti-cytochrome c monoclonal antibody. Then, membranes were incubated with anti-mouse IgG and the expression of cytochrome c was detected as described previously.
Western Blot Analysis After the exposure of cells to the indicated agents for four (for Bcl-2) or six (for cytochrome c) hours, cells were washed twice with ice-cold PBS and reaction was terminated by the addition of 100 μL ice-cold lysis buffer (10 mmol/L Tris-HCl, pH 7.4, 150 mmol/L NaCl, 1 mmol/L EGTA, 0.5 mmol/L phenylmethylsulfonyl fluoride (PMSF), 10 μg/mL aprotinin, 10 μg/mL leupeptin, and 1% Triton X-100). […] Protein content was determined by the Bio-Rad protein assay (Bio-Rad Laboratories, CA, USA). […]

Assay [3] concerns LPS-induced septic death in mouse model. The assay is described as follows: LPS-induced endotoxic shock (septic death) and lung histology. The class given is in vivo, mice. The method, then: Induction of Endotoxic Shock and Histological Examination In these experiments, mice (25-30 g, ICR strain) were injected intraperitoneally with 60 mg/kg of LPS (dissolved in PBS), and Compound 3 (suspended in carboxymethyl cellulose) was orally administered after the injection of LPS for 2 and 6 hours. The survival rate was monitored every 3 to 6 hours after LPS injection. For histological examination, the lung tissues were put into the 4% paraformaldehyde and embedded in paraffin. The embedded tissues were sectioned at 6-μm thick, stained with hematoxylin-eosin, and analyzed using a microscopy.

A further assay has as its system NR8383 macrophages. The assay is described as follows: LPS/interferon γ-induced tumor necrosis factor-α release. The class given is cell-based. The following applies: control 15.5±1.3, P=0.13, n=4.
A short description of assay [4]: Reduction of cytochrome c by superoxide anion (xanthine/xanthine oxidase). The following applies: xanthine/xanthine oxidase system; control 42.0±2.1; P=0.4, n=4. The class given is biochemical.
A short description of assay [5]: Free radical-scavenging activity with 1,1-diphenyl-2-picrylhydrazyl. Conditions: stable radical 1,1-diphenyl-2-picrylhydrazyl; data not shown.
Assay [6] relates to murine macrophage RAW 264.7 cells. In words: LPS-evoked NO formation. Conditions: RAW 264.7, LPS 1 μg/mL, 24-hour; control 68.8±13.4; P=0.43, n=4. The class given is cell-based.
Another assay relates to cyclooxygenase. The following applies: Ko et al. (1994) Blood 84: 4226-4233; cited from earlier work.
Where [7] appears, read: single agent alone, mean ± SEM, control 100.
[8] abbreviates: combination of SNP and Compound 3.
The mark [9] stands for this setting: inhibitor added to Compound 3 + SNP.

Structures are written as SMILES. Several values for one entry are separate records, joined by “and”; a condition that tells them apart may be missing. Identical values can stand only once. Entries after “also recorded” stand apart in the source; their conditions may differ.

Take `OCc1ccc(-c2nn(Cc3ccccc3)c3ccccc23)o1` [Compound 3]: the “increase in cell number” value in assay [1] (Compound 3 alone, not statistically significant) is listed as 11%. Besides, the “Cell survival (%)” value is 96.1 ± 4.2% in assay [1] (ODQ + Compound 3); 69.6 ± 4.0 % in [1] (ODQ + SNP + Compound 3); 100.6±5.5% and 102.9 ± 8.1^+ % in [1] (SNP + Compound 3 (SNP 1 mmol/L, Compound 3 30 μmol/L)); 111.3 ± 8.8% in assay [1] (setting [7]). For the same molecule, the “effect on SNP-induced apoptosis” value in [1] is given as “completely abolished”. In assay [1] (remaining anti-apoptotic effect in presence of ODQ), the “ODQ-irresponsible action in Compound 3-mediated effect” value was “about 20%”. Besides, the cGMP synthesis in assay [2] (Compound 3 alone, basal 2.3±0.3, 10 minutes) came out at 4.2±0.8 fmol/well. Further, the cGMP formation in assay [2] (setting [8]) was 252.8±81.8 fmol/well. For the same molecule, in [2] (setting [8]), the “increase of cGMP formation (folds)” value is recorded as “more than sixty folds”. The “effect on SNP-induced caspase-3 activity” value with caspase-3 (SNP 1 mmol/L, RASMCs) is reported as “completely inhibited”. The “phosphorylated Akt expression” value with phosphorylated Akt (Compound 3 alone) and in the assay with phosphorylated Akt (Compound 3 in combination with SNP) was “profound increase” throughout. The “effect on SNP-induced Bcl-2 down-regulation” value in the assay on Bcl-2 (SNP 1 mmol/L) was “completely prevented”. Moreover, the “effect on SNP-induced cytochrome c release” value in the assay with cytochrome c (SNP 1 mmol/L) was “completely prevented”. Moreover, the “condition of survived mice after LPS initiation” value in assay [3] (LPS 60 mg/kg i.p., Compound 3 10 mg/kg oral post-treatment) is listed as “remained vigorous more than one month”. The “survival rate of mice” value in [3] (LPS 60 mg/kg i.p., Compound 3 10 mg/kg oral two hours after LPS) is recorded as “significantly increased”. For the same molecule, the “histological examination of lung tissues” value in [3] (post-treated Compound 3 group, LPS mice) is “intact blood vessels without the infiltration of blood cells”. Also, the “LPS/interferon γ-induced tumor necrosis factor-α release” value with NR8383 macrophages was found to be 18.5 ± 1.2 ng/mL. Further, in assay [4], the “reduction of cytochrome c by superoxide anion” value turned out to be 40±0.6%. The free radical-scavenging activity result in assay [5] is listed as “little free radical-scavenging activity”. For the same molecule, the “NO formation (nitrite)” value in [6] is 53.4 ± 12.3 µmol/L. Also, the “inhibition on cyclooxygenase activity” value with cyclooxygenase is listed as “no inhibition”.
For `O=c1onc2cnc3ccccc3n12` [ODQ, reference compound], in assay [1], the “effect on Compound 3-induced cell proliferation” value is listed as “completely inhibited”, the “effect on SNP-induced apoptosis” value is reported as “no influence” and the “effect on Compound 3-mediated anti-apoptotic action” value is “significantly reversed”. Besides, in assay [1] (setting [7]), the “Cell survival (%)” value stood at 99.5 ± 5.7%. In addition, the cGMP level entry in assay [2] (ODQ + Compound 3 alone) was “the basal value”. Besides, the cGMP level in assay [2] (ODQ + combination of SNP and Compound 3) was about 21 fmol/well. For the same molecule, in the assay on caspase-3 (setting [9]), the “effect on Compound 3-mediated inhibition of caspase-3 activity” value was “partially but significantly reversed”. The “effect on Compound 3-induced phosphorylated Akt expression” value in the assay with phosphorylated Akt (Compound 3 alone or with SNP) was “profoundly inhibited”. The “effect on preventive action of Compound 3 (Bcl-2 down-regulation)” value in the assay with Bcl-2 (setting [9]) was “fully reversed”. In addition, the “effect on preventive action of Compound 3 (cytochrome c release)” value in the assay with cytochrome c (setting [9]) is “fully reversed”.
Consider `COc1cccc(-c2cc(=O)c3ccccc3o2)c1N` [PD98059], for which, in assay [1], the “effect on Compound 3-induced cell proliferation” value is recorded as “completely inhibited” and the “effect on Compound 3-mediated anti-apoptotic action” value is reported as “significantly reversed; also recorded: not PD98059 reversed”.
In the case of `Cn1cc(C2=C(c3cn(CCCSC(=N)N)c4ccccc34)C(=O)NC2=O)c2ccccc21` [Ro-318220], the cell survival in [1] (Ro-318220 added to Compound 3 plus SNP, n=7) is 107.1±3.1%. In addition, the “effect on Compound 3-mediated anti-apoptotic action” value in assay [1] is “little influence”.
On to `CCCC(=O)Nc1nc2c(ncn2C2OC3COP(=O)([O-])OC3C2OC(=O)CCC)c(=O)[nH]1.[Na+]` (centres unmarked) [dibutyl-cGMP], for which, in assay [1], the “effect on SNP-induced apoptosis” value is reported as “significantly reverse”.
